PMC9402538, “Rational design of a sensitivity-enhanced tracer for discovering efficient APC–Asef inhibitors” (Nature Communications, 2022)
Where two headings read alike, the source gives them in different places. Where a SMILES comes first, the peptide text is derived from it. The star is where a group is joined. Benzoyl(4-OMe) = COc1ccc(C(=O)*)cc1

Experiments:
APC WT = biological target: T1, APC WT (Homo sapiens, UniProt P25054); assay: ITC assay, APC WT; format: binding; settings: 30 °C
T1 sequence (P25054 303-739): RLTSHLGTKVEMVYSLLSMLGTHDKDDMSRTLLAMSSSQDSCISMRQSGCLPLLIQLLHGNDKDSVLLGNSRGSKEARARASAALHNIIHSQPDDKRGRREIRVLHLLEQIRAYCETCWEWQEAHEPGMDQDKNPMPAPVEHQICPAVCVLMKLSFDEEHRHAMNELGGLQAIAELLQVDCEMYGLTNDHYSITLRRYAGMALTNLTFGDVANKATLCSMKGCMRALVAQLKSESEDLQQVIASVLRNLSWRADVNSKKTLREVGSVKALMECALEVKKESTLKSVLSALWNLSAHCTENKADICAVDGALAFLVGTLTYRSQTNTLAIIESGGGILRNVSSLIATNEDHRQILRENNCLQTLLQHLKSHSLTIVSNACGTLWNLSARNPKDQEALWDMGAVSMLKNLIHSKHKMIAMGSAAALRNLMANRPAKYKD
Protocol: ITC experiments were performed using a MicroCal ITC200 calorimeter (Malvern Panalytical Ltd.). APC protein and peptide inhibitors were diluted with buffer containing 50 mM HEPES pH 7.5, 300 mM NaCl and 1 mM EDTA. The cells were loaded with APC proteins at 10–20 μM. All injections were performed using an initial injection of 0.2 μL followed by 19 injections of 2 μL at 100–200 μM. All measurements were carried out at 30 °C. The data were analyzed using a single-site binding model within MicroCal ITC200 analysis software to generate the stoichiometry (N), enthalpy changes (ΔH), entropy changes (ΔS), and the association constant (K) of binding. The changes in free energy (ΔG) were calculated (ΔG = ΔH-TΔS).

His-tagged APC (303–739) = biological target: T2, His-tagged APC (303–739) (Homo sapiens, UniProt P25054); assay: Surface plasmon resonance (Biacore 8K); format: binding
T2 sequence (P25054 303-739): T1 sequence (P25054 303-739)
Protocol: SPR experiments were performed using a Biacore 8 K system equipped with a CM5 sensor chip. […] The ligand at a 10 μg mL^-1 concentration in 10 mM sodium acetate, pH 5.0, was immobilized on flow cell 2; flow cell 1 was left blank to serve as a reference surface. […] To collect kinetic binding data, a serial concentration of peptide inhibitors in 1× PBS, pH 7.4, was injected over the two flow cells at a flow rate of 30 μL min^-1 and a temperature of 25 °C. The complex was allowed to associate and dissociate for 60–240 and 150–600 s, respectively. The experiments were performed in triplicate. […] The data were fitted to a Langmuir 1:1 binding model using the local Rmax analysis option available in the Biacore insight evaluation software.

[1] = biological target: T3, APC–Asef PPI (FLAG-tagged APC (303–876), HA-tagged Asef (170–632)) (Homo sapiens, UniProt P25054); assay: Exogenous Co-IP of APC–Asef in drug-treated HEK293T cell lysate; format: biochemical; settings: HEK293T cell lysate, 0.2, 1 and 5 μM, 2 h
T3 construct: FLAG-tagged APC (303–876) and hemagglutinin (HA)-tagged Asef (170–632) plasmids; expressed in transfected cells; host or cells: HEK293T (lysate treated with compound)
T3 sequence (P25054 303-876): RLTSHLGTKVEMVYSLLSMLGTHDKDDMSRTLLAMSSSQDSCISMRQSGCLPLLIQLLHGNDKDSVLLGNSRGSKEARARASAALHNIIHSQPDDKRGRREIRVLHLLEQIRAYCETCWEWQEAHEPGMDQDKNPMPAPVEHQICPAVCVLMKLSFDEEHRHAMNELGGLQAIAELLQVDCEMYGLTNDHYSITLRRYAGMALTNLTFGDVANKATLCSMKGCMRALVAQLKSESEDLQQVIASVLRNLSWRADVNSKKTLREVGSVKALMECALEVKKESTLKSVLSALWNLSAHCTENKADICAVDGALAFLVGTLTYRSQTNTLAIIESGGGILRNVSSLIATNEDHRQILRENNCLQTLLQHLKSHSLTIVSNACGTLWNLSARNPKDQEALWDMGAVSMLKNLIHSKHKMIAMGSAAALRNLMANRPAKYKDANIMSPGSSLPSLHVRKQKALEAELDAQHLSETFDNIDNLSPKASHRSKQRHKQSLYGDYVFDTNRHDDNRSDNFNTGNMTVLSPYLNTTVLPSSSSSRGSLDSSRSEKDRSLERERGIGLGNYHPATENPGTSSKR
Protocol: To investigate the effect of MAI-516 on the APC–Asef PPI, we first examined whether MAI-516 could perturb the APC–Asef PPI in cell lysates. HEK293T cells were transiently transfected with FLAG-tagged APC (303–876) and hemagglutinin (HA)-tagged Asef (170–632) plasmids. The cell lysates were harvested several hours after transfection and treated with different concentrations of MAI-203 and MAI-516 for 2 h; then, they were incubated with anti-FLAG® M2 affinity gel (Sigma; A2220) for 3 h at 4 °C.

## COc1ccc(C(=O)N[C@@H](C)C(=O)NCC(=O)N[C@@H](CCC(=O)O)C(=O)N[C@@H](CO)C(=O)N[C@@H](CC(C)C)C(=O)N[C@@H](Cc2ccc(O)cc2)C(=O)N[C@@H](CCC(=O)O)C(N)=O)cc1 [MAI-516] ({Benzoyl(4-OMe)}-AGESLYE-NH2)
APC WT
  -TΔS: 4.85 kcal/mol
  L/P ratio (number of sites per APC): 0.97
  ΔG: -11.6 kcal/mol
  ΔH: -16.4 kcal/mol
APC WT; ITC
  Kd: 0.0044 µM
His-tagged APC (303–739)
  RT (RT = 1/koff): 135 s
His-tagged APC (303–739); 1.5625 nM
  Relative response at equilibrium: 2.9457 RU
His-tagged APC (303–739); 3.125 nM
  Relative response at equilibrium: 3.565 RU
His-tagged APC (303–739); 6.25 nM
  Relative response at equilibrium: 5.67 RU
His-tagged APC (303–739); 12.5 nM
  Relative response at equilibrium: 10.1156 RU
His-tagged APC (303–739); 25 nM
  Relative response at equilibrium: 17.7318 RU
His-tagged APC (303–739); 50 nM
  Relative response at equilibrium: 24.4156 RU
His-tagged APC (303–739); 100 nM
  Relative response at equilibrium: 27.6681 RU
His-tagged APC (303–739); 200 nM
  Relative response at equilibrium: 31.5021 RU
His-tagged APC (303–739); SPR, Repeat 1, read-out: KD Repeat 1
  Kd: 0.0199 µM
His-tagged APC (303–739); SPR, Repeat 1, read-out: koff Repeat 1
  koff: 0.00848 s⁻¹
His-tagged APC (303–739); SPR, Repeat 1, read-out: kon Repeat 1
  kon: 427000 M⁻¹ s⁻¹
His-tagged APC (303–739); SPR, Repeat 2, read-out: KD Repeat 2
  Kd: 0.0188 µM
His-tagged APC (303–739); SPR, Repeat 2, read-out: koff Repeat 2
  koff: 0.00807 s⁻¹
His-tagged APC (303–739); SPR, Repeat 2, read-out: kon Repeat 2
  kon: 430000 M⁻¹ s⁻¹
His-tagged APC (303–739); SPR, Repeat 3, read-out: KD Repeat 3
  Kd: 0.016 µM
His-tagged APC (303–739); SPR, Repeat 3, read-out: koff Repeat 3
  koff: 0.00564 s⁻¹
His-tagged APC (303–739); SPR, Repeat 3, read-out: kon Repeat 3
  kon: 353000 M⁻¹ s⁻¹
His-tagged APC (303–739); SPR, mean of 3 repeats, read-out: KD mean
  Kd: 0.0182 µM
His-tagged APC (303–739); SPR, mean of 3 repeats, read-out: koff mean
  koff: 0.0074 s⁻¹
His-tagged APC (303–739); SPR, mean of 3 repeats, read-out: kon mean
  kon: 403000 M⁻¹ s⁻¹
His-tagged APC (303–739); SPR, single value printed in the Repeat 1 column
  RT: 135 s
[1]
  effect on APC–Asef PPI (Co-IP): dose-dependently attenuate the APC–Asef PPI
